In US7626042B2, “O-substituted hydroxyaryl derivatives” (Institute of Medicinal Molecular Design, Inc., priority 2002, dated 2009):

System: NF-κB activation
Assay: Inhibitory activity against NF-κB activation, luciferase reporter assay under TNF-α stimulation
Type: cell-based, human
Details: HepG2 cells, TNF-α 40 ng/ml, 4 hours; for inhibition at 1 µg/mL / inhibition at 10 µg/mL: Homo sapiens, read-out: Inhibitory Ratio of NF-κ B Activation(%)
Method: Inhibitory activity against NF-κB activation was measured by referring to the method of Hill et al. (Cell, (USA), in 1993, Vol. 73, No. 2, p. 395-406). Using a transfection reagent(Effectene; QIAGEN), the human hepatoma cell strain HepG2 was transfected with a plasmid (pNFκ Luc Reporter Plasmid; STRATAGENE) integrated with an oligonucleotide having five tandem copies of NF-κB binding sequences(TGGGGACTTTCCGC) on a upstream region of firefly luciferase gene (Luc) according to the QIAGEN's protocol, and the cells were incubated for 6 to 24 hours. Then the cells were cultured for 4 hours after the addition of TNF-α (40 ng/ml) in the presence of a test compound, and intracellular luciferase activity was measured by using PicaGene LT (TOYO INK MFG Co., Ltd.) and a chemical luminescence measurement apparatus(SPECTRAFluor Plus; TECAN). The inhibitory ratio was measured as a ratio relative to a value of the luciferase activity in the absence of the test compound.

Structure (SMILES) | inhibition at 1 µg/mL (Drug Concentration 1 μg/mL) [%] | inhibition at 10 µg/mL (Drug Concentration 10 μg/mL) [%] | Inhibitory Ratio of NF-κ B Activation(%) (Drug Concentration 1 μg/mL) | Inhibitory Ratio of NF-κ B Activation(%) (Drug Concentration 10 μg/mL)
O=C(Nc1cc(C(F)(F)F)cc(C(F)(F)F)c1)c1c(OC(=O)N2CCOCC2)ccc2ccccc12 [Compound 83, 2-(Morpholinocarbonyl)oxy-N-[3,5-bis(trifluoromethyl)phenyl]-1-naphthamide] | 23.5 | 18 |  | 
CC(C)C[C@H](NC(=O)[C@H](Cc1ccccc1)NC(=O)OC(C)(C)C)C(=O)Oc1ccc(Cl)cc1C(=O)Nc1cc(C(F)(F)F)cc(C(F)(F)F)c1 [Compound 35, 2-{N-[N-(tert-butoxycarbonyl)-L-phenylalanyl]-L-leucyl}oxy-5-chloro-N-[3,5-bis(trifluoromethyl)phenyl]benzamide] | 96.9 | 98.3 |  | 
O=C(COc1ccc(Cl)cc1)Oc1ccc(Cl)cc1C(=O)Nc1cc(C(F)(F)F)cc(C(F)(F)F)c1 [Compound 13] |  |  | 96.6 | 98.7
CCOC(=O)CN(CC(=O)OCC)C(=O)Oc1ccc(Cl)cc1C(=O)Nc1cc(C(F)(F)F)cc(C(F)(F)F)c1 [Compound 75, 2-{N,N-bis[(ethoxycarbonyl)methyl]carbamoyl}oxy-5-chloro-N-[3,5-bis(trifluoromethyl)phenyl]benzamide] | 94.3 | 94.9 |  | 
O=C(Nc1cc(C(F)(F)F)cc(C(F)(F)F)c1)c1cc(Cl)ccc1OC(=O)N1CCOCC1 [Compound 71] |  |  | 70.6 | 78.0
O=C(Nc1cc(C(F)(F)F)ccc1C(F)(F)F)c1cc(Br)cc(Br)c1OC(=O)N1CCOCC1 [Compound 130, 3,5-Dibromo-2-(morpholinocarbonyl)oxy-N-[2,5-bis(trifluoromethyl)phenyl]-benzamide] | 18.9 |  |  | 
O=C(Nc1cc(C(F)(F)F)cc(C(F)(F)F)c1)c1cc(Cl)ccc1OCOC(=O)N1CCCCC1 [Compound 101, 5-Chloro-2-[(piperidinocarbonyl)oxy]methoxy-N-[3,5-bis(trifluoromethyl)phenyl]-benzamide] | 41 | 42.8 |  | 
CC(=O)NCC(=O)Oc1ccc(Cl)cc1C(=O)Nc1cc(C(F)(F)F)cc(C(F)(F)F)c1 [Compound 20] |  |  | 94.8 | 98.1
CC(C)(Oc1ccc(Cl)cc1)C(=O)Oc1ccc(Cl)cc1C(=O)Nc1cc(C(F)(F)F)cc(C(F)(F)F)c1 [Compound 16] |  |  | 96.6 | 98.4
O=C(Nc1cc(C(F)(F)F)cc(C(F)(F)F)c1)c1cc(Cl)ccc1OCCO [Compound 107] |  |  | 47.4 | 52.1
O=C(Nc1cc(C(F)(F)F)cc(C(F)(F)F)c1)c1cc(Br)ccc1OC(=O)N1CCOCC1 [Compound 77, 5-Bromo-2-(morpholinocarbonyl)oxy-N-[3,5-bis(trifluoromethyl)phenyl]benzamide] | 69.7 | 31 |  | 
CC(C)(C)OC(=O)CC(=O)Oc1ccc(Cl)cc1C(=O)Nc1cc(C(F)(F)F)cc(C(F)(F)F)c1 [Compound 17] |  |  | 97.0 | 96.8
O=C(CNC(=O)Oc1ccc(Cl)cc1C(=O)Nc1cc(C(F)(F)F)cc(C(F)(F)F)c1)N[C@@H](Cc1ccccc1)C(=O)O [Compound 62] |  |  | 96.8 | 97.8
COc1ccc(C(C)(C)C)cc1C(=O)Nc1cc(C(F)(F)F)cc(C(F)(F)F)c1 [Compound 94] |  |  | 56.1 | 51.7
O=C(Oc1ccc(Cl)cc1C(=O)Nc1cc(C(F)(F)F)cc(C(F)(F)F)c1)c1cccnc1 [Compound 6] |  |  | 94.4 | 98.1
COc1ccccc1NC(=O)c1cc2cc(Br)ccc2cc1OP(=O)(O)O [Compound 53] |  |  | 21.5 | 92.0
CC(C)[C@H](NC(=O)OC(C)(C)C)C(=O)Oc1ccc(Cl)cc1C(=O)Nc1cc(C(F)(F)F)cc(C(F)(F)F)c1 [Compound 24, 2-[N-(tert-butoxycarbonyl)-L-valyl]oxy-5-chloro-N-[3,5-bis(trifluoromethyl)phenyl]-benzamide] | 96.3 | 96.8 |  | 

Structure (SMILES) | inhibition at 1 µg/mL (Drug Concentration 1 μg/mL) [%] | inhibition at 10 µg/mL (Drug Concentration 10 μg/mL) [%] | Inhibitory Ratio of NF-κ B Activation(%) (Drug Concentration 1 μg/mL) | Inhibitory Ratio of NF-κ B Activation(%) (Drug Concentration 10 μg/mL)
N[C@@H](CCC(=O)O)C(=O)Oc1ccc(Cl)cc1C(=O)Nc1cc(C(F)(F)F)cc(C(F)(F)F)c1 [Compound 32] |  |  | 98.0 | 98.8
O=C(Oc1ccc(Cl)cc1C(=O)Nc1cc(C(F)(F)F)cc(C(F)(F)F)c1)c1ccccc1 [Compound 4] |  |  | 94.2 | 97.5
O=C(CNC(=O)OCc1ccccc1)Oc1ccc(Cl)cc1C(=O)Nc1cc(C(F)(F)F)cc(C(F)(F)F)c1 [Compound 21] |  |  | 96.7 | 98.7
CC(C)(C)c1ccc(OP(=O)([O-])O)c(C(=O)Nc2cc(C(F)(F)F)cc(C(F)(F)F)c2)c1.[Na+] [Compound 139] |  |  | 64.3 | 
CN(C(=O)Oc1ccc(Cl)cc1C(=O)Nc1cc(C(F)(F)F)cc(C(F)(F)F)c1)c1ccccc1 [Compound 69] |  |  | 29.7 | 18.7
COCOc1ccc(Cl)cc1C(=O)Nc1cc(C(F)(F)F)cc(C(F)(F)F)c1 [Compound 97] |  |  | 21.6 | 94.4
O=C(COc1ccc(Cl)cc1C(=O)Nc1cc(C(F)(F)F)cc(C(F)(F)F)c1)OCc1ccccc1 [Compound 110, 2-[(benzyloxy)carbonyl]methoxy-5-chloro-N-[3,5-bis(trifluoromethyl)phenyl]-benzamide] | 38.5 | 39.2 |  | 
CCCCC(=O)Oc1ccc(Cl)cc1C(=O)Nc1cc(C(F)(F)F)cc(C(F)(F)F)c1 [Compound 2] |  |  | 97.9 | 98.6
O=C(Nc1cc(C(F)(F)F)ccc1Cl)c1cc(Br)ccc1OP(=O)([O-])O.[Na+] [Compound 136] |  |  | >99.9 | 
O=C(NCc1ccccc1)Oc1ccc(Cl)cc1C(=O)Nc1cc(C(F)(F)F)cc(C(F)(F)F)c1 [Compound 55] |  |  | 97.1 | 99.1
CCOC(=O)OC(C)Oc1ccc(Cl)cc1C(=O)Nc1cc(C(F)(F)F)cc(C(F)(F)F)c1 (centres unmarked) [Compound 100] |  |  | 96.1 | 98.5
O=C(Nc1cc(C(F)(F)F)cc(C(F)(F)F)c1)c1cc(Cl)ccc1OCOC(=O)N1CCOCC1 [Compound 102, 5-Chloro-2-[(morpholinocarbonyl)oxy]methoxy-N-[3,5-bis(trifluoromethyl)phenyl]-benzamide] | 39.1 | 70 |  | 
O=C(Nc1cc(C(F)(F)F)cc(C(F)(F)F)c1)c1cc(-c2ccccc2)ccc1OC(=O)N1CCOCC1 [Compound 81, 2-(Morpholinocarbonyl)oxy-5-phenyl-N-[3,5-bis(trifluoromethyl)phenyl]benzamide] | 26.4 | 29.2 |  | 
O=C(COc1ccccc1)Oc1ccc(Cl)cc1C(=O)Nc1cc(C(F)(F)F)cc(C(F)(F)F)c1 [Compound 12] |  |  | 95.5 | 97.5
O=C(Nc1cc(C(F)(F)F)cc(C(F)(F)F)c1)c1cc(Cl)ccc1OCN1C(=O)c2ccccc2C1=O [Compound 111] |  |  | 94.3 | 96.0
COc1ccc(C(F)(F)F)cc1NC(=O)c1cc(Br)ccc1OC(=O)N1CCOCC1 [Compound 86, 5-Bromo-N-[2-methoxy-5-(trifluoromethyl)phenyl]-2-[(morpholinocarbonyl)oxy]-benzamide] | 23.4 | 11.9 |  | 
CCOC(=O)CNC(=O)Oc1ccc(Cl)cc1C(=O)Nc1cc(C(F)(F)F)cc(C(F)(F)F)c1 [Compound 56, 5-chloro-2-{N-[(ethoxycarbonyl)methyl]carbamoyl}oxy-N-[3,5-bis(trifluoromethyl)-phenyl]benzamide] | 96.8 | 98.9 |  | 
